Earlier results on four compounds are cited in patent US20220183969A1, “OCULAR INSERT CONTAINING A GLUCOCORTICOID” (Ocular Therapeutix, Inc., priority 2020, published 2022).

For the data set the following is noted: for Equivalent Dose: established equivalent oral dose; for Relative Potency: oral glucocorticoid potency with reference to cortisol.

Consider `C[C@]12C=CC(=O)C=C1CC[C@@H]1[C@@H]2[C@@H](O)C[C@@]2(C)[C@H]1CC[C@]2(O)C(=O)CO` [Prednisolone], for which the “Equivalent Dose” value is 5 mg and the “Relative Potency” value is reported as 4.

Regarding `C[C@]12C=CC(=O)C=C1CC[C@H]1[C@@H]3C[C@@H](O)[C@](O)(C(=O)CO)[C@@]3(C)C[C@H](O)[C@@]12F` [Triamcinolone], the “Equivalent Dose” value is listed as 4 mg and the “Relative Potency” value was 5.

With `C[C@]12CCC(=O)C=C1CC[C@@H]1[C@@H]2[C@@H](O)C[C@@]2(C)[C@H]1CC[C@]2(O)C(=O)CO` [Cortisol], the “Equivalent Dose” value is listed as 20 mg and the “Relative Potency” value is recorded as 1.

Turning to `C[C@@H]1C[C@H]2[C@@H]3CCC4=CC(=O)C=C[C@]4(C)[C@@]3(F)[C@@H](O)C[C@]2(C)[C@@]1(O)C(=O)CO` [Dexamethasone, 9-Fluor-11β,17,21-trihydroxy-16α-methyl-pregna-1,4-dien-3,20-dion], the “Equivalent Dose” value is listed as 0.8 mg and the “Relative Potency” value is listed as 25-80.
